Reference: patent USRE49698E1, “Substituted dihydroquinazolines” (AiCuris Anti-infective Cures GmbH, priority 2003, dated 2023)
Structures can show the parent of a compound that is named as a salt. Where two headings read alike, the source gives them in different places.

Key:
HCMV = assay: Anti-HCMV (anti-human cytomegalovirus) cytopathogenicity test; type: cell-based
Description: (§1) Anti-HCMV (Anti-Human Cytomegalovirus) Cytopathogenicity Tests
(§2) The test compounds are employed as 50 millimolar (mM) solutions in dimethyl sulphoxide (DMSO). Ganciclovir®, Foscarnet® and Cidofovir® are used as reference compounds. After addition of in each case 2 μl of the 50, 5, 0.5 and 0.05 mM DMSO stock solutions to 98 μl portions of cell culture medium in row 2 A-H for duplicate determinations, 1:2 dilutions are carried out with 50 μl portions of medium up to row 11 of the 96-well plate. The wells in rows 1 and 12 each contain 50 μl of medium. In 150 μl of a suspension of 1×10^4 cells (human prepuce fibroblasts [NHDF]) are pipetted into each of the wells (row 1=cell control) and, in rows 2-12, a mixture of HCMV-infected and uninfected NHDF cells (M.O.I.=0.001-0.002), i.e. 1-2 infected cells per 1000 uninfected cells. Row 12 (without substance) serves as virus control. The final test concentrations are 250-0.0005 μM. The plates are incubated at 37° C./5% CO2 for 6 days, i.e. until all the cells are infected in the virus controls (100% cytopathogenic effect [CPE]). The wells are then fixed and stained by adding a mixture of formalin and Giemsa's dye (30 minutes), washed with double-distilled water and dried in a drying oven at 50° C. The plates are then assessed visually using an overhead microscope (Plaque Multiplier from Technomara).
The following data can be acquired from the test plates:
SI (selectivity index)=CC50 (NHDF)/EC50 (HCMV).

[1] = Cytostatic effect on NHDF cells in the anti-HCMV cytopathogenicity test plates; type: cell-based; conditions: human, human prepuce fibroblasts (NHDF cells), 6 days incubation, visual assessment, concentration at which no visible cytostatic effects are evident vs untreated cell control
Description: as §1, §2
The following data can be acquired from the test plates: […]

[2] = Human betaherpesvirus 5, NHDF, 144 h, read-out: HCMV EC50
[3] = Human betaherpesvirus 5, NHDF, 144 h; read-out: HCMV EC50

SMILES | SI HCMV (selectivity index) (HCMV; CC50 (NHDF)/EC50 (HCMV)) | EC50 (HCMV; [2]) [nM] | CC50 at 6 days [1] [nM] | EC50 (HCMV; [3]) [nM]
COc1ccc(Cl)cc1N1C(N2CCN(c3ccc(F)cc3)CC2)=Nc2c(F)cccc2C1CC(=O)O (single isomer, unassigned) [Example 23, {8-Fluoro-2-[4-(4-fluorophenyl)-1-piperazinyl]-3-[6-methoxy-3-chlorophenyl]-3,4-dihydro-4-quinazolinyl}acetic acid hydrochloride] | 12632 | 2 | 24000 | –
O=C(O)CC1c2cccc(F)c2N=C(N2CCN(c3ccc(F)cc3)CC2)N1c1cccc(C(F)(F)F)c1 (single isomer, unassigned) [Example 2, {8-Fluoro-2-[4-(4-fluorophenyl)-1-piperazinyl]-3-[3-(trifluoromethyl)phenyl]-3,4-dihydro-4-quinazolinyl}acetic acid] | 750 | – | 12000 | 16
NC(=O)c1ccc2c(c1)C(CC(=O)O)N(c1cccc(C(F)(F)F)c1)C(N1CCN(c3cccc(Cl)c3)CC1)=N2 (stereo not shown) [Example 29] | 671 | – | 47000 | 70
COc1ccc(C(F)(F)F)cc1N1C(N2CCN(c3ccc(F)cc3)CC2)=Nc2c(F)cccc2C1CC(=O)O (single isomer, unassigned) [Example 19, {8-Fluoro-2-[4-(4-fluorophenyl)-1-piperazinyl]-3-[2-methoxy-5-(trifluoromethyl)phenyl]-3,4-dihydro-4-quinazolinyl}acetic acid] | 8947 | – | 17000 | 2
Cc1cccc(N2CCN(C3=Nc4c(F)cccc4C(CC(=O)O)N3c3cccc(C(F)(F)F)c3)CC2)c1 (single isomer, unassigned) [Example 9, {8-Fluoro-2-[4-(3-methylphenyl)-1-piperazinyl]-3-[3-(trifluoromethyl)phenyl]-3,4-dihydro-4-quinazolinyl}acetic acid hydrochloride] | 750 | 20 | 15000 | –
COc1cccc(N2CCN(C3=Nc4c(F)cccc4C(CC(=O)O)N3c3cc(C(F)(F)F)ccc3OC)CC2)c1 (single isomer, unassigned) [Example 15, {8-Fluoro-2-[4-(3-methoxyphenyl)-1-piperazinyl]-3-[2-methoxy-5-(trifluoromethyl)phenyl]-3,4-dihydro-4-quinazolinyl}acetic acid] | – | – | – | 2
